Several values for one entry are separate records, joined by “and”; a condition that tells them apart may be missing. Equal values may be shown once.
Key:
[1] = biological target: ERBB4/HER4 (Homo sapiens, UniProt Q15303); test: biochemical; conditions: read-out: % enzyme activity, 1 μM; Run 1, Run 2
[2] = biological target: T1, PKD2/PRKD2 (Homo sapiens, UniProt Q9BZL6); test: biochemical; conditions: read-out: % enzyme activity, 1 μM; Run 1, Run 2
T1 sequence (Q9BZL6 1-878): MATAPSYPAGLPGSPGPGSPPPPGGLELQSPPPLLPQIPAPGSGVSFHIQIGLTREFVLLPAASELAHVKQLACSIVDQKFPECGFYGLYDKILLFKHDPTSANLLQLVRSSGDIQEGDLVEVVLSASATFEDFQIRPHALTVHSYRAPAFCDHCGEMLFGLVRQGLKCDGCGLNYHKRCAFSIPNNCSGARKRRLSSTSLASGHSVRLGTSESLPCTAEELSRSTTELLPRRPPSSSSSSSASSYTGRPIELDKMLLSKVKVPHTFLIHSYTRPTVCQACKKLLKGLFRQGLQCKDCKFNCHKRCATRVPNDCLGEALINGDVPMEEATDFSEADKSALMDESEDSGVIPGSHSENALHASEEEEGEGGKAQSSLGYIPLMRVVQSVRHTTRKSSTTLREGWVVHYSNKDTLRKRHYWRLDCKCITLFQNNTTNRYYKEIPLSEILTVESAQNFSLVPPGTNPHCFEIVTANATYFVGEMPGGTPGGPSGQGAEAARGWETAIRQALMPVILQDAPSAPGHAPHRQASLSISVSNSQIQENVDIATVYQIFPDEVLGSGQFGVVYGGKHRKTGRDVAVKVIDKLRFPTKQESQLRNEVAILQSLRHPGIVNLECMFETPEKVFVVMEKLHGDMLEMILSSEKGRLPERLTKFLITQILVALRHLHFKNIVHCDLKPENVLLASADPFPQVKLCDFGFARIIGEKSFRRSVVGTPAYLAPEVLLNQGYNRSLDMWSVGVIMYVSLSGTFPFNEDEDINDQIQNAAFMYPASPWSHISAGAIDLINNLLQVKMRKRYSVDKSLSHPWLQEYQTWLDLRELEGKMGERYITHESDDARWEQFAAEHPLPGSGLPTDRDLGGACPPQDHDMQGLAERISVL

[3] = biological target: CDK2/Cyclin A1 (Homo sapiens, UniProt P24941); conditions: 1 μM; Run 1, Run 2
[4] = biological target: T2, TYRO3/SKY (Homo sapiens, UniProt Q06418); test: biochemical; conditions: read-out: % enzyme activity, 1 μM; Run 1, Run 2
T2 sequence (Q06418 41-890): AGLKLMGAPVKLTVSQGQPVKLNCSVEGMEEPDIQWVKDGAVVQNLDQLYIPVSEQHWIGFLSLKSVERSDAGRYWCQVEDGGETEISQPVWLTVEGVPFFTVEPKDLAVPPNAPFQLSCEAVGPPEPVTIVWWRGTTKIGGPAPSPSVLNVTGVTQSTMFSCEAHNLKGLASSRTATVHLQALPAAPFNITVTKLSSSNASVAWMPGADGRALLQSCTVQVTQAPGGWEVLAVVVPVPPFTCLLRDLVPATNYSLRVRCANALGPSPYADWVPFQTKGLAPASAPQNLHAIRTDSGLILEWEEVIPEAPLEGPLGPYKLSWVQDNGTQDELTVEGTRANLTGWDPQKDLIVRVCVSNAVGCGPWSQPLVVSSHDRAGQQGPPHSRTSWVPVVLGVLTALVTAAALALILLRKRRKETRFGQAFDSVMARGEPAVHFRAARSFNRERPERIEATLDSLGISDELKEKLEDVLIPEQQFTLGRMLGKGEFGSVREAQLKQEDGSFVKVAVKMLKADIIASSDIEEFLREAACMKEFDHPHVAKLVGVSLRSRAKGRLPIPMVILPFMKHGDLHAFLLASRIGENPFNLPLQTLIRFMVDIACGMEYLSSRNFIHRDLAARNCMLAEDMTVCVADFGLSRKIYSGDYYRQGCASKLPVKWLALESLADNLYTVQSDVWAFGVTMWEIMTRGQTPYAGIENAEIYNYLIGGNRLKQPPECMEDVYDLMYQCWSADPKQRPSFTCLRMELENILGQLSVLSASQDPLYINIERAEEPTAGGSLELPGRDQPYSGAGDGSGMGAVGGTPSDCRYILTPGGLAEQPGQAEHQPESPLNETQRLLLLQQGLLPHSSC

[5] = biological target: EPHA2 (Homo sapiens, UniProt P29317); conditions: 1 μM; Run 1, Run 2
[6] = biological target: CAMK1d (Homo sapiens, UniProt Q8IU85); test: biochemical; conditions: read-out: % enzyme activity, 1 μM; Run 1, Run 2
[7] = biological target: T3, GRK1 (Homo sapiens, UniProt Q15835); conditions: 1 μM; Run 1, Run 2
T3 sequence (Q15835 1-563): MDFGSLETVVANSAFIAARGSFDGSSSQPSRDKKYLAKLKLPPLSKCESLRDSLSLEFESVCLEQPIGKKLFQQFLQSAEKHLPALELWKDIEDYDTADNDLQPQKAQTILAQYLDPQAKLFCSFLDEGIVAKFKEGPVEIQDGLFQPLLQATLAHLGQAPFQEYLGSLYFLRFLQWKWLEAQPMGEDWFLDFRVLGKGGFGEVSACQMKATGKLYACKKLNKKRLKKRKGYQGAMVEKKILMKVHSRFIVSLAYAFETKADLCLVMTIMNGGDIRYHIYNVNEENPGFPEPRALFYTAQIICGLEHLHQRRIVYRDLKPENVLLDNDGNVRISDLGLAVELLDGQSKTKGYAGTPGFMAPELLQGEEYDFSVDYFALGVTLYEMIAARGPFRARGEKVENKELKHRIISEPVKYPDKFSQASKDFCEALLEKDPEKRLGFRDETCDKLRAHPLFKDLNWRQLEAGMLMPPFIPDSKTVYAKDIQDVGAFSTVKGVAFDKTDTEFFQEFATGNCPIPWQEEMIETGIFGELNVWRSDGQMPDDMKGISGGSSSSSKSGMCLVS

[8] = biological target: WEE1 (Homo sapiens, UniProt P30291); conditions: 1 μM; Run 1, Run 2
[9] = tested on: hERG
[10] = biological target: PKAcb (Homo sapiens, UniProt P22694); conditions: 1 μM; Run 1, Run 2
[11] = tested on: DYRK1/DYRK1A
[12] = biological target: FRK/PTK5 (Homo sapiens, UniProt P42685); conditions: 1 μM; Run 1, Run 2
[13] = biological target: FAK/PTK2 (Homo sapiens, UniProt Q05397); test: biochemical; conditions: read-out: % enzyme activity, 1 μM; Run 1, Run 2
[14] = biological target: MARK1 (Homo sapiens, UniProt Q9P0L2); conditions: 1 μM; Run 1, Run 2
Chain of MARK1 (Q9P0L2 whole entry): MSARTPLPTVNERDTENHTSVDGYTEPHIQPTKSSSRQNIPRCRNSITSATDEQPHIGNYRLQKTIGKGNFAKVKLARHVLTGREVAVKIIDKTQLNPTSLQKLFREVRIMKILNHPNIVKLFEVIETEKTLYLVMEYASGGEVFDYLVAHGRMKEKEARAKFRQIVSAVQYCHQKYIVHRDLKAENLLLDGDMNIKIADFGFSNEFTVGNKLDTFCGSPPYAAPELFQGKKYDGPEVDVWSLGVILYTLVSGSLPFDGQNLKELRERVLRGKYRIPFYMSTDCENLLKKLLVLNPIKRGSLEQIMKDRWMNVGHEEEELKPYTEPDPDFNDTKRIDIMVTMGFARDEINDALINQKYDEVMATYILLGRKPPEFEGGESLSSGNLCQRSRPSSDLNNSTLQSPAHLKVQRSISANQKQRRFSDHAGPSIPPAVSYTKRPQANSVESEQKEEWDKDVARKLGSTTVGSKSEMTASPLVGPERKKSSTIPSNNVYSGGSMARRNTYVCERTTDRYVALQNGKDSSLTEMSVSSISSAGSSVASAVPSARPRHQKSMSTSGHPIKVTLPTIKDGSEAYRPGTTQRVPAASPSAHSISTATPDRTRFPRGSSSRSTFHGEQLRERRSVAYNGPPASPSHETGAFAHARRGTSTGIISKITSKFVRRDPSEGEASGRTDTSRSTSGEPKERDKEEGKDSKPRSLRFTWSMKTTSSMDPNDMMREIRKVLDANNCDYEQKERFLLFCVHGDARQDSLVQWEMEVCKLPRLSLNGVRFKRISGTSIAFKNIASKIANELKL

Chain of ERBB4/HER4 (Q15303 26-1308): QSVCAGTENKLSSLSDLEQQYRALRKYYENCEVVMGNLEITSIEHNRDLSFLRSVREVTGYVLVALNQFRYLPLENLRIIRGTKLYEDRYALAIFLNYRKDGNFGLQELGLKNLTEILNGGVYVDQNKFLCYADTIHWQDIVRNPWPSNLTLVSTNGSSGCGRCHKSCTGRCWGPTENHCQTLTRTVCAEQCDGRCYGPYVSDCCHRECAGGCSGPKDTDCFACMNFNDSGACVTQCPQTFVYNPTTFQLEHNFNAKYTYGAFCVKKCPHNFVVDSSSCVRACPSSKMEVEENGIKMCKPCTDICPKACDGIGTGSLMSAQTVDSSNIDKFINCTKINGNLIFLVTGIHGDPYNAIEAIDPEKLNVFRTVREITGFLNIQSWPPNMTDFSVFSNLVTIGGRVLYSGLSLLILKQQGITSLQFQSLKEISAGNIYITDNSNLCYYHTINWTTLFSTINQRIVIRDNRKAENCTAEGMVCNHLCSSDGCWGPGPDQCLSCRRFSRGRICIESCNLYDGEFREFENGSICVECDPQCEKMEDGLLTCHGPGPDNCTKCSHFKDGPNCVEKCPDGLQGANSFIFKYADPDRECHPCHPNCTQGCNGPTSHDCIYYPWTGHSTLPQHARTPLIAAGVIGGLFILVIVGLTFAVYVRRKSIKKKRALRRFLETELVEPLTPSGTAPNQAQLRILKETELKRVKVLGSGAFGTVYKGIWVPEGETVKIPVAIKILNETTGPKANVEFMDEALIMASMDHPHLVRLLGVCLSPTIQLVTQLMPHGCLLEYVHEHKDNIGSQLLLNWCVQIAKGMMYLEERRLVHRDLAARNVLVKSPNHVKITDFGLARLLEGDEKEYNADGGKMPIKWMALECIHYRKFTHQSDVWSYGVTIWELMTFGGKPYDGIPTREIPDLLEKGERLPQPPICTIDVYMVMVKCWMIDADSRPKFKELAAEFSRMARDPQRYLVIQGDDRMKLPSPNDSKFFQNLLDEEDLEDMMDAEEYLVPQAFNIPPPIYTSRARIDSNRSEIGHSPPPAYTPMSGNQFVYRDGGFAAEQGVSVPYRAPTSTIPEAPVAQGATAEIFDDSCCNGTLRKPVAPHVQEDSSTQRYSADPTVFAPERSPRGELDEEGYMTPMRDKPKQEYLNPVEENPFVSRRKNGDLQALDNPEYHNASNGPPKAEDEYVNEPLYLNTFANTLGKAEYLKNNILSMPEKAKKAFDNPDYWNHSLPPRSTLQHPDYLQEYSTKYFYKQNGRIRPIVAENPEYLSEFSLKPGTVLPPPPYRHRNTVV
Chain of WEE1 (P30291 whole entry, species assumed): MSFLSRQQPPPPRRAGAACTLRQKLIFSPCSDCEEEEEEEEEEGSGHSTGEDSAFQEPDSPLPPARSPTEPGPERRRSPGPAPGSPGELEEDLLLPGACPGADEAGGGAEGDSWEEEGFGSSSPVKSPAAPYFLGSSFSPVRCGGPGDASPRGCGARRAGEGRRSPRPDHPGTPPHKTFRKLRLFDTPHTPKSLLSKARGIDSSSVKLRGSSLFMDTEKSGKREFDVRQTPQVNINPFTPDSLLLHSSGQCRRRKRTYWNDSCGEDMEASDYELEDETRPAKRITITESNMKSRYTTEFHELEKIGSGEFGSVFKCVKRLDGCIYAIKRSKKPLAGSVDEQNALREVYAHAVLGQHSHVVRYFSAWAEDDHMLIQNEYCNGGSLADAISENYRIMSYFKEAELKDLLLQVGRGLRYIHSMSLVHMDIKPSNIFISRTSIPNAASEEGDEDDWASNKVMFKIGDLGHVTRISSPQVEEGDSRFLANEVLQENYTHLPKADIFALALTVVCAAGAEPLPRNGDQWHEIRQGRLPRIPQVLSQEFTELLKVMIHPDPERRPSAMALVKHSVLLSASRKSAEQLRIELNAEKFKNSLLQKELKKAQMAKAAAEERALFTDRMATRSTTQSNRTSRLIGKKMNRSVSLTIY
Chain of FRK/PTK5 (P42685 whole entry): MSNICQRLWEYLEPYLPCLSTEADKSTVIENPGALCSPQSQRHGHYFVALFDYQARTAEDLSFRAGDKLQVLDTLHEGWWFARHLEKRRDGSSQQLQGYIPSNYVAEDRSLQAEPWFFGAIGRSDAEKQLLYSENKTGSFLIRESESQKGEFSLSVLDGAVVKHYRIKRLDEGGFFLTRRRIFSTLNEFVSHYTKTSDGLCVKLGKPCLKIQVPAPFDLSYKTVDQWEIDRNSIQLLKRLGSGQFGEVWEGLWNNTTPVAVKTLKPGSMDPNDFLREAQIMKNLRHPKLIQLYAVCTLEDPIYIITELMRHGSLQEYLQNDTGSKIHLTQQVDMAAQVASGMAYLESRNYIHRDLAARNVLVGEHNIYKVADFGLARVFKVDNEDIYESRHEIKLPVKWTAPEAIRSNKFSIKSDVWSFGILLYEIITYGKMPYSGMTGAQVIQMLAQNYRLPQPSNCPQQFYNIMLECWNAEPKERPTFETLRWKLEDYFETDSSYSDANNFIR
Chain of EPHA2 (P29317 24-976): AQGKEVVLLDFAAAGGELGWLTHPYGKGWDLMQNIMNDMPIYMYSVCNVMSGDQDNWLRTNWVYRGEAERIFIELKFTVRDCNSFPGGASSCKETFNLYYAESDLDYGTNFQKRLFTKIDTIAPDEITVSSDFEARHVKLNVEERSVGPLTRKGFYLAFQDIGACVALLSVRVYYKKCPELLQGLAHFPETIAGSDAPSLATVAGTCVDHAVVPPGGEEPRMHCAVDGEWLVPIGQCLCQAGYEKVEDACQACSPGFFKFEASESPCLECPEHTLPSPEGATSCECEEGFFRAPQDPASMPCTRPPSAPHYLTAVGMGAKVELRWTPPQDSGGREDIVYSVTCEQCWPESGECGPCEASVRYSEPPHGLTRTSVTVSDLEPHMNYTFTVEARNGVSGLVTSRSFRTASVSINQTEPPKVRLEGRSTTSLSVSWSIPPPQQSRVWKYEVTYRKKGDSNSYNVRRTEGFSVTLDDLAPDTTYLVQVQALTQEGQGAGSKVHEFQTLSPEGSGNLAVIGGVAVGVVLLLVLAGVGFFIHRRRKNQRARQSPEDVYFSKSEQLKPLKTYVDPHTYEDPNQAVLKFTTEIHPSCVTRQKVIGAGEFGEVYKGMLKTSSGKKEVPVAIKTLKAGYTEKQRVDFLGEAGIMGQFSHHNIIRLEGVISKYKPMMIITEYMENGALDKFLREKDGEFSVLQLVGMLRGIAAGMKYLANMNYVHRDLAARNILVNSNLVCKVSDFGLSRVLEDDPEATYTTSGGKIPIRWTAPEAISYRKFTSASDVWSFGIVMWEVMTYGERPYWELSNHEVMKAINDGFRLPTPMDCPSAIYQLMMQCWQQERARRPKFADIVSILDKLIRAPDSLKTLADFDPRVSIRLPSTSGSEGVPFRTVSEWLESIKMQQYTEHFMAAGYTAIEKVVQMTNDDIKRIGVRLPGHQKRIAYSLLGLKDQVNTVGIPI
Chain of CAMK1d (Q8IU85 whole entry): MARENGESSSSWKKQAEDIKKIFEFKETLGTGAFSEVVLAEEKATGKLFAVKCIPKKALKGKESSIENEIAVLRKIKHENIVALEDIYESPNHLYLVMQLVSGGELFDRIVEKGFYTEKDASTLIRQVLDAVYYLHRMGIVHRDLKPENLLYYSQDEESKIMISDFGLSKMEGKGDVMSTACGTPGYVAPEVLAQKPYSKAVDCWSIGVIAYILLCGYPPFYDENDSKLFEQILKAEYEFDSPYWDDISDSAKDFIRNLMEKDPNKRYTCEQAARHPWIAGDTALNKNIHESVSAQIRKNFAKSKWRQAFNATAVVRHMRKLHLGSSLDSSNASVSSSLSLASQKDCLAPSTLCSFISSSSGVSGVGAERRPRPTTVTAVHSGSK

In the case of `COc1cc(-c2cncc(-c3ccc(N4CCN(C)CC4)cc3)c2C)cc(F)c1C(N)=O` [Compound 26a, 2-Fluoro-6-methoxy-4-(4-methyl-5-(4-(4-methylpiperazin-1-yl)phenyl)pyridin-3-yl)benzamide], the remaining activity at 1 µM [1] is reported as 99.5%, the remaining activity at 1 µM [2] is reported as 96.1% and the “% enzyme activity” value [3] is reported as 99.67%. The remaining activity at 1 µM [4] was 84.1%, the “% enzyme activity” value [5] was 97.38% and the remaining activity at 1 µM [6] was 98.5%. The “% enzyme activity” value [7] was 93.15%, the “% enzyme activity” value [8] was 104.15% and the IC50 [9] was >30 µM. The hERG inhibition [9] was > 30 µM, the “% enzyme activity” value [10] was 95.19% and the % enzyme activity at 1 μM [11] was 43.3% and 43.1%. The “% enzyme activity” value [12] was 95.48%, the remaining activity at 1 µM [13] was 94% and the “% enzyme activity” value [14] was 87.63%.
For `COc1cc(-c2cncc(-c3ccc(N4C[C@@H](C)N(C)[C@@H](C)C4)cc3)c2C)cc(F)c1C(N)=O` [Compound 26c, 2-Fluoro-6-methoxy-4-(4-methyl-5-(4-((3R,5S)-3,4,5-trimethylpiperazin-1-yl)phenyl)pyridin-3-yl)benzamide], the remaining activity at 1 µM [1] was 94.9%, the remaining activity at 1 µM [2] was 99.2% and the “% enzyme activity” value [3] was 97.14%. For the same compound, the remaining activity at 1 µM [4] was 94.5%, the “% enzyme activity” value [5] was 104.56% and the remaining activity at 1 µM [6] was 99.9%. For the same compound, the “% enzyme activity” value [7] was 94.01%, the “% enzyme activity” value [8] was 99.73% and the hERG inhibition [9] was 18.8 µM. The “% enzyme activity” value [10] was 96.20%, the % enzyme activity at 1 μM [11] was 62.4% and 60% and the “% enzyme activity” value [12] was 95.52%. The remaining activity at 1 µM [13] was 95.4% and the “% enzyme activity” value [14] was 89.90%.
